Measured values published in patent US8133471B2, “CLK-peptide and SLK-peptide” (New York University, priority 2003, dated 2012).

Key:
[1] = test system: intact triple helical collagen type-IV; assay: Solid phase ELISA, labeled CLK-peptide binding to native collagen type-IV
Method: (§1) FIG. 15 CLK-Peptide Reacts with a Cryptic Epitope in Collagen Type-IV In Vitro. Reactivity of biotin-labeled CLK-Peptide was assessed by solid phase ELISA. Reactivity was monitored by incubation with HRP-labeled streptavidin. […] All data was corrected for nonspecific binding of HRP-labeled streptavidin only. Data bars represent the mean optical density (O.D.)±standard deviation from triplicate wells. Assays were repeated 2 to 3 times with similar results.
(§2) The CLK-peptide was labeled with HRP and used in solid phase ELISA to assess differential binding to either native or denatured collagen type-IV. Microtiter plates were coated with either native or denatured collagen type-IV and HRP-labeled CLK-peptide was allowed to bind. […] In contrast, CLK-Peptide readily bound to denatured collagen type-IV. […] To determine whether this cryptic epitope was also exposed within the ECM in vivo, biotin-labeled CLK-peptide was used to stain M21 human melanoma tumors growing in nude mice (results shown in FIGS. 16A and B and described in Example 15).

GL261 tumor cells [2] = assay: GL261 cell migration, CLK-peptide combined with ionizing radiation (Example 22); assay type: cell-based, murine; settings: 50 μg/ml + 5.0 Gy; 6 hours; versus controls
Method: The effects, of combining CLK-peptide with radiation therapy, on invasive tumor cell migration are examined. GL261 cells are resuspended in migration buffer in the presence or absence of CLK-peptide or control (50 μg/ml). The cells are added to the coated wells and allowed to incubate for 1 hour, and either left untreated or irradiated with a single fraction dose of ionizing radiation (5.0 Gy). The GL261 tumor cells are allowed to migrate for 6 hours. Tumor cells that have migrated to the underside of the coated membranes are quantified by staining with crystal violet, and the optical densities of cell-associated dye are measured with a microplate reader at a wavelength of 600 nm. CLK-peptide in combination with ionizing radiation is found to inhibit GL261 cell migration on denatured collagen type-IV substantially when compared to controls.

GL261 tumor cells [3] = assay: GL261 cell migration on denatured collagen type-IV (transwell); assay type: cell-based, murine; settings: 50 μg/ml; 6 hours; versus controls
Method: FIG. 22 Effects of CLK-Peptide on Tumor Cell Migration. In cell migration assays, CLK-peptide (50 μg/ml) inhibited GL261 cell migration on denatured collagen type-IV by approximately 50% as compared to control.
The effects of CLK-peptide on invasive tumor cell migration and proliferation in vitro were examined. Membranes from transwell chambers and microtiter wells (in proliferation assays) were coated with denatured collagen type-IV (10 μg/ml). GL261 cells were resuspended in either migration buffer or proliferation buffer in the presence or absence of CLK-peptide or control (50 μg/ml). In the cell migration experiments, GL261 tumor cells were allowed to migrate for 6 hours. Tumor cells that had migrated to the underside of the coated membranes were quantified by staining with crystal violet, and the optical densities of cell-associated dye were measured with a microplate reader at a wavelength of 600 nm.

[4] = test system: GL261 glioblastoma tumors; assay: GL261 tumors grown on chick CAMs, CLK-peptide combined with ionizing radiation; assay type: in vivo; settings: CLK-peptide 50 μg/embryo + 5.0 Gy; 7-day incubation
Method: FIG. 25 Effects of CLK-Peptide on Anti-Tumor Activity of Ionizing Radiation In Vivo. Glioblastoma tumors grown on CAMs were treated with either CLK-Peptide, ionizing radiation, both, or left untreated as a control. Their relative sizes after incubation are shown. FIG. 26 Quantitation of the Effects of CLK-Peptide on Anti-tumor Activity of Ionizing Radiation in vivo. Glioblastoma tumors grown on CAMs were treated with either CLK-Peptide, ionizing radiation, both, or left untreated as a control. Their relative wet weights following treatment are graphed. The effects of CLK-peptide in combination with ionizing radiation on tumor growth in vivo were assessed. GL261 glioblastoma cells were seeded on the CAMs of 10-day old chick embryos. Twenty-four hours later, the embryos were injected systemically with CLK-peptide (50 μg/embryo). Twenty-four hours after CLK-peptide treatment the embryos were either untreated or irradiated with a single fraction dose of ionizing radiation (5.0 Gy). Photographs showing the relative sizes of […] given each treatment individually, the combination treatment, and not treated, are shown in FIG. 25. At the end of the 7-day incubation period the tumors (N=6 to 8 per condition) were removed and wet weights determined.

p21CIP1 = p21CIP1 expression by Western blot in M21 cells; assay type: cell-based, human; settings: 100 μg/ml
Method: FIG. 12 Inhibition of Cellular Interactions by CLK-Peptide Enhances Expression of P21CIP1 in Human Melanoma (M21) Cells. Non-tissue culture treated 96-well plates were coated with denatured collagen type-IV (10 μg/ml). Human melanoma cells (M21) were allowed to proliferate in the presence or absence of CLK-Peptide or control peptide CTW (100 μg/ml) over a 3-day time course. Cells were then allowed to incubate for 12 hours in 1% serum-containing medium. Expression of P21 CIP1 and actin control were evaluated by Western blotting.
To examine whether the cryptic epitope recognized by CLK-peptide plays a role in cellular proliferation, in vitro proliferations assays were carried out (FIG. 13). In addition, the effects of CLK-peptide on expression of the CDK inhibitor p21^CIP1 were examined by Western blotting methods (FIG. 12). Non-tissue culture treated microtiter wells were coated with denatured collagen type-IV. Human M21 melanoma cells were resuspended in 1% RPMI in the presence or absence of CLK or control CTW-peptide (100 μg/ml). Proliferation was monitored by measuring the relative levels of mitochondrial dehydrogenase using a commercially available (WST-I) proliferation kit (Chemicon).

GL261 glioblastoma cells = assay: GL261 proliferation, CLK-peptide combined with ionizing radiation; assay type: cell-based, murine; settings: CLK-peptide 50 μg/ml + 5.0 Gy, 3 days, P<0.050, versus control
Method: FIG. 24 CLK-Peptide Enhances Radiosensitivity of […] Glioblastoma. Percent inhibition of tumor cell proliferation was quantitated in the presence or absence of CLK-Peptide, ionizing radiation, and a combination of the two.
Microtiter wells were coated with denatured collagen type-IV (10 μg/ml). GL261 cells were resuspended in proliferation buffer containing 1% serum in the presence or absence of a sub-optimal amount of CLK-peptide or control peptide (CTW) (50 μg/ml).
The cells were added to the coated wells and allowed to incubate for 1 hour, then either untreated or irradiated with a single fraction dose of ionizing radiation (5.0 Gy). A ^60Co source (Theratron) was used to deliver a single fraction of 5 Gy. The cells, on a 30 cm^2 field, were irradiated from a distance of 80 cm with a gantry angle of 180 degrees on a solid water phantom at 0.5 cm depth.
Tumor cells were allowed to proliferate for 3 days and proliferation was quantified by measuring the relative amount of mitochondrial dehydrogenase using a WST-1 tetrazolium salt cleavage assays kit (Chemicon).

[5] = test system: denatured collagen type-IV; assay: Solid phase ELISA, labeled CLK-peptide binding to denatured collagen type-IV
Method: as §1, §2

“H-CLKQNGGNFSLG-OH [CLK-peptide, NH2-C-L-K-Q-N-G-G-N-F-S-L-G-COOH]” was tested, and the “binding to intact triple helical collagen type-IV” value [1] was “little if any binding”, the “inhibition of GL261 cell migration on denatured collagen type-IV in combination with ionizing radiation” value (GL261 tumor cells [2]) was “substantially” and the “inhibition of GL261 cell migration on denatured collagen type-IV” value (GL261 tumor cells [3]) was “approximately 50%”. For the same substance, the “inhibition of tumor growth (wet weights), combination therapy versus either treatment alone” value [4] was “greater”, the “expression of the CDK inhibitor p21CIP1” value (p21CIP1) was “up-regulated” and the “increase of the antiproliferative effects of a sub-optimal dose of ionizing radiation” value (GL261 glioblastoma cells) was “approximately 5 fold”. For the same substance, the “binding to denatured collagen type-IV” value [5] was “readily bound”.
